Values quoted from earlier work as cited in patent publication US20080187561A1, “Enteric Coated Didanosine Compositions Having A Subcoat” (priority 2007, published 2008).

Settings: pH<3, 37° C., acidic solution

In the case of `OC[C@@H]1CC[C@H](n2cnc3c(O)ncnc32)O1` [didanosine, 2′,3′-dideoxyinosine], the “Time in which 10% of didanosine decomposes to hypoxanthine” value is given as “less than 2 minutes”.
